Where two headings read alike, the source gives them in different places. No end group written: not given here.
What was measured:
[1] = tested on: CHO cells transfected with an empty pcDNA3.1 vector; assay: GPCR activation assay, control cells transfected with empty pcDNA3.1 vector; format: cell-based, Chinese hamster; settings: in vitro controls
Procedure: (§1) To obtain direct evidence for NLP-12 activation of CKR-1, we used an in vitro bioluminescence-based approach. CKR-1 was expressed in Chinese hamster ovarian (CHO) cells stably expressing the promiscuous G-protein alpha subunit Gα16 and a bioluminescent calcium indicator, aequorin ([Caers et al., 2014]). The NLP-12 precursor gives rise to two distinct mature peptides, NLP-12–1 and NLP-12–2.
(§2) The GPCR activation assay was performed as previously described ([Caers et al., 2014]; [Peymen et al., 2019]; [Van Sinay et al., 2017]). Briefly, CHO-K1 cells stably expressing the luminescent Ca^2+ indicator aequorin and the promiscuous Gα16 protein (ES-000-A24 cell line, PerkinElmer) were transiently transfected with ckr-1/pcDNA3.1, ckr-2/pcDNA3.1, or empty pcDNA3.1 vector. Cells were transfected with Lipofectamine LTX and Plus reagent (Invitrogen) at 60–80% confluency and grown overnight at 37°C. After 24 hr, they were shifted to 28°C overnight. On the day of the assay, transfected cells were collected in bovine serum albumin (BSA) medium (DMEM/F12 without phenol red with L-glutamine and 15 mM HEPES, Gibco, supplemented with 0.1% BSA), at a density of 5 million cells per ml, and loaded with 5 µM coelenterazine h (Invitrogen) for 4 hr at room temperature. Compound plates containing synthetic peptides in DMEM/BSA were placed in a MicroBeta LumiJet luminometer (PerkinElmer). After loading, the transfected cells were added at a density of 25,000 cells/well, and luminescence was measured for 30 s at a wavelength of 469 nm. After 30 s, 0.1% triton X-100 (Merck) was added to lyse the cells, resulting in a maximal Ca^2+ response that was measured for 30 s. To constitute concentration-response curves of NLP-12 peptides, peptide concentrations ranging from 1 pM to 10 µM were tested in triplicate on 2 independent days.

CKR-1 = molecular target: T1, CKR-1 (Caenorhabditis elegans, UniProt P91487); assay: GPCR activation assay, CKR-1 (aequorin bioluminescence calcium, CHO-K1 Gα16); format: cell-based; settings: for ratio of total calcium response: in vitro controls, CKR-1
T1 sequence (P91487 1-421): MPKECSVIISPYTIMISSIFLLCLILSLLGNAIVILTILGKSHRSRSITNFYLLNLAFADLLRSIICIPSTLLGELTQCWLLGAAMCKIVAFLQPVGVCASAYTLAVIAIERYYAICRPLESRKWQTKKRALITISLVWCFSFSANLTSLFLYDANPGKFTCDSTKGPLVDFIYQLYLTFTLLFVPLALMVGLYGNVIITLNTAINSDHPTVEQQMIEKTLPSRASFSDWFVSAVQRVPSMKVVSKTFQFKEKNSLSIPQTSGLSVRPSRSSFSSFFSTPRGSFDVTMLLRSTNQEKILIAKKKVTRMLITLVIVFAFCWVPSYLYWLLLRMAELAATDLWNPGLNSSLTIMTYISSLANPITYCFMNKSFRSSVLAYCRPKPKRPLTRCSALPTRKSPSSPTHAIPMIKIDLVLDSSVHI
Procedure: as §1, §2

CKR-2 = CKR-2 (Caenorhabditis elegans, UniProt M1Z894); assay: GPCR activation assay, CKR-2 (aequorin bioluminescence calcium, CHO-K1 Gα16); format: cell-based; settings: for ratio of total calcium response: in vitro controls, CKR-2
Procedure: as §1, §2

[2] = tested on: SMD neurons, Caenorhabditis elegans; settings: in vivo
[3] = CHO-K1 cells, aequorin/Gα16, 1 pM to 10 µM, triplicate on 2 independent days (n=6), luminescence 469 nm, 30 s, read-out: EC50 (CKR-1 activation, calcium response)
[4] = concentration-response curve fit, n=6, read-out: 95% confidence interval (EC50, CKR-1 activation)
[5] = read-out: 95% confidence interval (EC50, CKR-2 activation), concentration-response curve fit, n=6
[6] = read-out: EC50 (CKR-2 activation, calcium response), CHO-K1 cells, aequorin/Gα16, 1 pM to 10 µM, triplicate on 2 independent days (n=6), luminescence 469 nm, 30 s

CKR-2, sequence (M1Z894 entry or part of it): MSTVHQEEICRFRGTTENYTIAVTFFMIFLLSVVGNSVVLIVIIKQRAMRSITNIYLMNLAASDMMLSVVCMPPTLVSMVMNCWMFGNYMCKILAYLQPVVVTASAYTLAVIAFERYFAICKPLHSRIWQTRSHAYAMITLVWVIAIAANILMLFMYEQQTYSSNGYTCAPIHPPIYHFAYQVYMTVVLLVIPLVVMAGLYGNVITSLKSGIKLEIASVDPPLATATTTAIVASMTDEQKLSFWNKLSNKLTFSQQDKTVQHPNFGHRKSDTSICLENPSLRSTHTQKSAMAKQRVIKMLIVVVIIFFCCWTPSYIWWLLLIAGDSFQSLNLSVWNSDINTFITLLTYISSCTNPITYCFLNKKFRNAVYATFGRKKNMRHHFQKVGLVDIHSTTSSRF

Compound: Nc1ncnc2c1ncn2[C@@H]1O[C@H](COP(=O)(O)OP(=O)(O)OP(=O)(O)O)[C@@H](O)[C@H]1O [ATP]
- ratio of total calcium response ([1]; replicate 1): 0.9381
- ratio of total calcium response ([1]; replicate 2): 0.6003
- ratio of total calcium response ([1]; replicate 3): 0.6268
- ratio of total calcium response ([1]; replicate 4): 0.814
- ratio of total calcium response ([1]; replicate 5): 0.8225
- ratio of total calcium response (CKR-1; replicate 1): 0.6901
- ratio of total calcium response (CKR-1; replicate 2): 0.479
- ratio of total calcium response (CKR-1; replicate 3): 0.5419
- ratio of total calcium response (CKR-1; replicate 4): 0.7243
- ratio of total calcium response (CKR-1; replicate 5): 0.7237
- ratio of total calcium response (CKR-2; replicate 1): 0.7753
- ratio of total calcium response (CKR-2; replicate 2): 0.8315
- ratio of total calcium response (CKR-2; replicate 3): 0.845
- ratio of total calcium response (CKR-2; replicate 4): 0.8913
- ratio of total calcium response (CKR-2; replicate 5): 0.8945

Compound: NCCc1c[nH]cn1 [histamine]
- reorientations during food searching upon SMD silencing [2]: reduced reorientations with SMD silencing in transgenics

Compound: DGYRPLQF-NH2 [NLP-12-2, DGYRPLQFamide]
- EC50 (CKR-1; [3]): 1.9 nM
- EC50 (CKR-1; [4]): 0.93 to 3.77 nM
- EC50 (CKR-2; [5]): 6.43 to 16.7 nM
- EC50 (CKR-2; [6]): 10.2 nM

Compound: DYRPLQF-NH2 [NLP-12-1, DYRPLQFamide]
- EC50 (CKR-1; [3]): 3.5 nM
- EC50 (CKR-1; [4]): 1.79 to 7.07 nM
- EC50 (CKR-2; [5]): 5.16 to 12.5 nM
- EC50 (CKR-2; [6]): 8 nM

— PMC8626090, “A conserved neuropeptide system links head and body motor circuits to enable adaptive behavior” (eLife, 2021)
